Measured values taken from patent US9908912B2, “Triclosan derivatives and uses thereof” (priority 2012, dated 2018).
Values after ≈ are worked out from the molar mass of the structure shown.

Assays:
E. hermanii ATCC 33650 = experiment: MIC in Nutrient Broth No. 2; assay type: cell-based, Escherichia hermanii; settings: Nutrient Broth No. 2
Experimental: (§1) Bacteria species as indicated in Table 1 were incubated for approximately 24 hours at 37° C.
(§2) The tests were repeated with the addition of inducers. Methyl glycoside was the main inducer used, but other suitable inducers include isopropyl-β-D-thiogalactopyranoside, p-nitrophenyl-α-L-arabinopyranoside and p-nitrophenyl-β-D-xylopyranoside. Concentration of inducer in all cases was 100 μg/ml.

[1] = system: Kleb. pneumoniae ATCC 10031; experiment: MIC in Nutrient Broth No. 2; assay type: cell-based, Klebsiella pneumoniae; settings: Nutrient Broth No. 2
Experimental: as §1, §2

[2] = system: Aeromonas hydrophila OCC 778; experiment: MIC in Nutrient Broth No. 2; assay type: cell-based; settings: Nutrient Broth No. 2
Experimental: as §1, §2

[3] = system: Bacillus cereus ATCC 14579; experiment: MIC in Nutrient Broth No. 2; assay type: cell-based; settings: Nutrient Broth No. 2
Experimental: as §1, §2

[4] = system: Bacillus subtilis NCTC 10073; experiment: MIC in Nutrient Broth No. 2; assay type: cell-based; settings: Nutrient Broth No. 2
Experimental: as §1, §2

[5] = system: Citrobacter freundii OCC 851; experiment: MIC in Nutrient Broth No. 2; assay type: cell-based; settings: Nutrient Broth No. 2
Experimental: as §1, §2

[6] = system: Enterobacter aerogenes ATCC 13048; experiment: MIC in Nutrient Broth No. 2; assay type: cell-based; settings: Nutrient Broth No. 2
Experimental: as §1, §2

[7] = system: Enterococcus faecalis ATCC 29212; experiment: MIC in Nutrient Broth No. 2; assay type: cell-based; settings: Nutrient Broth No. 2
Experimental: as §1, §2

[8] = system: Enterococcus faecium ATCC 19434; experiment: MIC in Nutrient Broth No. 2; assay type: cell-based; settings: Nutrient Broth No. 2
Experimental: as §1, §2

Escherichia coli = experiment: MIC in Nutrient Broth No. 2; assay type: cell-based; settings: 8 strains, Nutrient Broth No. 2
Experimental: as §1, §2

Hafnia alvei ATCC 13337 = experiment: MIC in Nutrient Broth No. 2; assay type: cell-based; settings: Nutrient Broth No. 2
Experimental: as §1, §2

[9] = system: Proteus mirabilis ATCC 12453; experiment: MIC in Nutrient Broth No. 2; assay type: cell-based; settings: Nutrient Broth No. 2
Experimental: as §1, §2

Proteus vulgaris OCC 195 = experiment: MIC in Nutrient Broth No. 2; assay type: cell-based; settings: Nutrient Broth No. 2
Experimental: as §1, §2

[10] = system: Ps. Aeruginosa ATCC 27853; experiment: MIC in Nutrient Broth No. 2; assay type: cell-based; settings: Nutrient Broth No. 2
Experimental: as §1, §2

Salmonella = experiment: MIC in Nutrient Broth No. 2; assay type: cell-based; settings: 11 strains, Nutrient Broth No. 2
Experimental: as §1, §2

[11] = system: Serratia marcescens OCC 217; experiment: MIC in Nutrient Broth No. 2; assay type: cell-based; settings: Nutrient Broth No. 2
Experimental: as §1, §2

[12] = system: Strep. pneumoniae ATCC 6305; experiment: MIC in Nutrient Broth No. 2; assay type: cell-based, Streptococcus pneumoniae; settings: Nutrient Broth No. 2
Experimental: as §1, §2

S. epidermidis = experiment: MIC in Nutrient Agar; assay type: cell-based, Staphylococcus epidermidis; settings: 3 strains; Nutrient Agar containing 0.1 μg/ml of inducer; 37° C., 24 hours
Experimental: (§3) The triclosan-glycosides were added to Nutrient Agar (Oxoid CM0003; Thermofisher Scientific) and organisms were transferred onto the plates surface using a multi-point inoculation device (Oxoid Cathra, Thermofisher Scientific). The latter is essentially a metal plate containing a number of needles. Each needle tip (usually 36 per plate) dips into an organism suspension (in phosphate buffered saline; PBS) and the needles are then moved over the agar plate and lowered onto its surface. In this way the growth of colonies of up to 36 different organisms can be observed on one plate.
(§4) Nutrient Agar No. 2 was prepared according to the manufacturers instructions, autoclaved and cooled to 50° C. Test compounds were then added as filter sterilised solutions (50:50 deionised water:ethanol), to give final concentrations from 256 μg/ml to 0 μg/ml in doubling dilutions. […] The mixtures were swirled then four plates (25 ml molten agar) were poured for each concentration. Plates were dried in a laminar flow cabinet then inoculated with overnight cultures of organisms that had been decimally diluted twice in sterile saline solution (approximately 10^7 cfu/ml) using a multi-point inoculator. Plates were then incubated at 37° C. for 24 hours. MICs were determined as the concentration at which no growth was observed.

S. haemolyticus = experiment: MIC in Nutrient Agar; assay type: cell-based, Staphylococcus haemolyticus; settings: Nutrient Agar containing 0.1 μg/ml of inducer; 37° C., 24 hours
Experimental: as §3, §4

S. saprophyticus = experiment: MIC in Nutrient Agar; assay type: cell-based, Staphylococcus saprophyticus; settings: Nutrient Agar containing 0.1 μg/ml of inducer; 37° C., 24 hours
Experimental: as §3, §4

Str. agalactiae = experiment: MIC in Nutrient Agar; assay type: cell-based, Streptococcus agalactiae; settings: Nutrient Agar containing 0.1 μg/ml of inducer; 37° C., 24 hours
Experimental: as §3, §4

Str. pneumoniae = experiment: MIC in Nutrient Agar; assay type: cell-based, Streptococcus pneumoniae; settings: Nutrient Agar containing 0.1 μg/ml of inducer; 37° C., 24 hours
Experimental: as §3, §4

Str. pyogenes = experiment: MIC in Nutrient Agar; assay type: cell-based, Streptococcus pyogenes; settings: Nutrient Agar containing 0.1 μg/ml of inducer; 37° C., 24 hours
Experimental: as §3, §4

Str. viridans = experiment: MIC in Nutrient Agar; assay type: cell-based, Streptococcus viridans; settings: Nutrient Agar containing 0.1 μg/ml of inducer; 37° C., 24 hours
Experimental: as §3, §4

C. freundii = experiment: MIC in Nutrient Agar; assay type: cell-based, Citrobacter freundii; settings: Nutrient Agar containing 0.1 μg/ml of inducer; 37° C., 24 hours
Experimental: as §3, §4

Cr. sakazakii = experiment: MIC in Nutrient Agar; assay type: cell-based, Cronobacter sakazakii; settings: Nutrient Agar containing 0.1 μg/ml of inducer; 37° C., 24 hours
Experimental: as §3, §4

Ent. cloacae = experiment: MIC in Nutrient Agar; assay type: cell-based, Enterobacter cloacae; settings: Nutrient Agar containing 0.1 μg/ml of inducer; 37° C., 24 hours
Experimental: as §3, §4

E. hermanii = experiment: MIC in Nutrient Agar; assay type: cell-based, Escherichia hermanii; settings: Nutrient Agar containing 0.1 μg/ml of inducer; 37° C., 24 hours
Experimental: as §3, §4

Bacillus cereus = experiment: MIC in Nutrient Agar; assay type: cell-based; settings: Nutrient Agar containing 0.1 μg/ml of inducer; 37° C., 24 hours
Experimental: as §3, §4

Bacillus subtilis = experiment: MIC in Nutrient Agar; assay type: cell-based; settings: Nutrient Agar containing 0.1 μg/ml of inducer; 37° C., 24 hours
Experimental: as §3, §4

Hafnia alvei = experiment: MIC in Nutrient Agar; assay type: cell-based; settings: Nutrient Agar containing 0.1 μg/ml of inducer; 37° C., 24 hours
Experimental: as §3, §4

Ps. aeruginosa = experiment: MIC in Nutrient Agar; assay type: cell-based; settings: Nutrient Agar containing 0.1 μg/ml of inducer; 37° C., 24 hours
Experimental: as §3, §4

Kleb. pneumoniae = experiment: MIC in Nutrient Agar; assay type: cell-based, Klebsiella pneumoniae; settings: Nutrient Agar containing 0.1 μg/ml of inducer; 37° C., 24 hours
Experimental: as §3, §4

Ser. marcescens = experiment: MIC in Nutrient Agar; assay type: cell-based, Serratia marcescens; settings: Nutrient Agar containing 0.1 μg/ml of inducer; 37° C., 24 hours
Experimental: as §3, §4

Compound OC[C@H]1O[C@H](Oc2cc(Cl)ccc2Oc2ccc(Cl)cc2Cl)[C@H](O)[C@@H](O)[C@H]1O [α-D-Galactoside, triclosan-α-D-galactopyranoside] has an MIC (E. hermanii ATCC 33650; with inducer 100 μg/ml) of 32 µg/mL (≈ 70.8 µM), an MIC (E. hermanii ATCC 33650; without inducer) of 32 µg/mL (≈ 70.8 µM) and an MIC ([1]; with inducer 100 μg/ml) of 1 µg/mL (≈ 2.21 µM). For the same compound, the MIC ([1]; without inducer) was 1 µg/mL (≈ 2.21 µM), the MIC ([2]; with inducer 100 μg/ml) was greater than 256 µg/mL and the MIC ([2]; without inducer) was greater than 256 µg/mL. It also gave an MIC ([3]; with inducer 100 μg/ml) greater than 256 µg/mL, an MIC ([3]; without inducer) greater than 256 µg/mL and an MIC ([4]; with inducer 100 μg/ml) greater than 256 µg/mL. The MIC ([4]; without inducer) was 256 µg/mL (≈ 567 µM), the MIC ([5]; with inducer 100 μg/ml) was 128 µg/mL (≈ 283 µM) and the MIC ([5]; without inducer) was 64 µg/mL (≈ 142 µM). The MIC ([6]; with inducer 100 μg/ml) was 64 µg/mL (≈ 142 µM), the MIC ([6]; without inducer) was 128 µg/mL (≈ 283 µM) and the MIC ([7]; with inducer 100 μg/ml) was greater than 256 µg/mL. It also gave an MIC ([7]; without inducer) greater than 256 µg/mL, an MIC ([8]; with inducer 100 μg/ml) greater than 256 µg/mL and an MIC ([8]; without inducer) greater than 256 µg/mL. For the same compound, the MIC (Escherichia coli; with inducer 100 μg/ml) was 8 to 64 µg/mL, the MIC (Escherichia coli; without inducer) was 16 to 64 µg/mL and the MIC (Hafnia alvei ATCC 13337; with inducer 100 μg/ml) was 8 µg/mL (≈ 17.7 µM). It also gave an MIC (Hafnia alvei ATCC 13337; without inducer) of 16 µg/mL (≈ 35.4 µM), an MIC ([9]; with inducer 100 μg/ml) of 32 µg/mL (≈ 70.8 µM) and an MIC ([9]; without inducer) of 32 µg/mL (≈ 70.8 µM). For the same compound, the MIC (Proteus vulgaris OCC 195; with inducer 100 μg/ml) was 64 µg/mL (≈ 142 µM), the MIC (Proteus vulgaris OCC 195; without inducer) was 64 µg/mL (≈ 142 µM) and the MIC ([10]; with inducer 100 μg/ml) was greater than 256 µg/mL. It also gave an MIC ([10]; without inducer) greater than 256 µg/mL, an MIC (Salmonella; with inducer 100 μg/ml) of 32 to 128 µg/mL and an MIC (Salmonella; without inducer) of 32 to 64 µg/mL. For the same compound, the MIC ([11]; with inducer 100 μg/ml) was greater than 256 µg/mL, the MIC ([11]; without inducer) was greater than 256 µg/mL and the MIC ([12]; with inducer 100 μg/ml) was 256 µg/mL (≈ 567 µM). The MIC ([12]; without inducer) was 128 µg/mL (≈ 283 µM), the MIC (S. epidermidis) was 8 µg/mL (≈ 17.7 µM) and the MIC (S. haemolyticus) was 8 µg/mL (≈ 17.7 µM). The MIC (S. saprophyticus) was 32 µg/mL (≈ 70.8 µM), the MIC (Str. agalactiae) was greater than 256 µg/mL and the MIC (Str. pneumoniae) was 256 µg/mL (≈ 567 µM). It also gave an MIC (Str. pyogenes) greater than 256 µg/mL, an MIC (Str. viridans) greater than 256 µg/mL and an MIC (C. freundii) of 64 µg/mL (≈ 142 µM). For the same compound, the MIC (Cr. sakazakii) was 32 µg/mL (≈ 70.8 µM), the MIC (Ent. cloacae) was 32 µg/mL (≈ 70.8 µM) and the MIC (E. hermanii) was 32 µg/mL (≈ 70.8 µM). It also gave an MIC (Bacillus cereus) greater than 256 µg/mL, an MIC (Bacillus subtilis) of 128 µg/mL (≈ 283 µM) and an MIC (Hafnia alvei) of 4 µg/mL (≈ 8.86 µM). It also gave an MIC (Ps. aeruginosa) greater than 256 µg/mL, an MIC (Kleb. pneumoniae) of 16 µg/mL (≈ 35.4 µM) and an MIC (Ser. marcescens) greater than 256 µg/mL.
